In brackets after ≈: the same amount, converted by molar mass. Like-named read-outs stand apart in the source and are kept apart here.
Key:
[1] = system: P. aeruginosa IBRS P001; experiment: Membrane permeability assay (nucleotide and protein leakage); assay type: cell-based, Pseudomonas aeruginosa; details: rutin MIC; absorbance of released nucleic acids (260 nm) and proteins (280 nm) increased after 60 min
Protocol: The effect of rutin on membrane permeability (nucleotide and protein leakage) was evaluated as described earlier with some modifications. The culture of P. aeruginosa IBRS P001 and MRSA IBRS MRSA 011 was incubated overnight at 37 °C, washed, and suspended in 10 mM PBS in order to achieve the final density of 10^8 CFU/mL. Bacteria were incubated with rutin at a concentration equal to MIC for time intervals 0, 30, 60, and 90 min. Bacteria incubated with PBS were used as control. After incubation the mixture was filtered through a 0.22 μm pore size filter to remove […]. The optical density of the filtrate was measured at 260 and 280 nm with an Agilent/HP 8453 UV-Visible Spectrophotometer (Agilent Technologies, Santa Clara, CA, USA) at room temperature (25 °C).

[2] = system: MRSA IBRS MRSA 011; experiment: Bacterial adhesion to HaCaT cells; assay type: cell-based, Staphylococcus aureus
Protocol: HaCaT cells were grown until confluence in 24-well plates with an adhesive bottom. The medium was removed and DMEM without FBS containing the rutin (MIC and 0.5 MIC) was added. The samples were incubated at 37 °C for 15 min, and bacteria (P. aeruginosa IBRS P001 and MRSA IBRS MRSA 011) were added. After incubation at 37 °C for 1 h, the cells were washed three times with DMEM without FBS and lyzed with 1 mL of 1% (v/v) Tween-20 (SigmaAldrich, Germany) at 37 °C for 30 min. Afterwards, dilutions of the bacterial suspension in each well were made and seeded on Plate Count Agar plates. The number of CFU was determined after incubation at 37 °C for 18 h, and the percentage of adhered bacterial cells was calculated following the equation:% (adhesion relative to the control) = 100 × CFU (treated)/CFU (control)
With CFU (treated) representing the number of CFUs after the treatment of cells with rutin and CFU (control) representing the number of bacterial CFUs in the untreated sample. The solvent treated sample was used as the control.

[3] = system: P. aeruginosa MMA83; experiment: Antimicrobial microdilution assay (MIC/MBC); assay type: cell-based, Pseudomonas aeruginosa; details: Pseudomonas aeruginosa, MMA83
How it was run: (§1)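 Broth microdilution: 0.5 McFarland suspensions, diluted twenty-fold, were mixed 1:10 with polyphenol dilutions (0.0039–1 mg/mL) and incubated 24 h at 37 °C.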

[4] = system: P. aeruginosa IBRS P001; experiment: Antimicrobial microdilution assay (MIC/MBC); assay type: cell-based, Pseudomonas aeruginosa; details: Pseudomonas aeruginosa, IBRSP001; for MIC: read-out: MIC
How it was run: as §1

[5] = system: P. aeruginosa IBRS P001 elastase production; experiment: Elastase assay (Elastin-Congo red); assay type: cell-based, Pseudomonas aeruginosa; details: 0.25 mg/mL (0.5 MIC), compared to the control
Protocol: After 48 h of incubation (37 °C, 180 rpm), the mixtures were collected and centrifuged at 15,700× g for 15 min. Quantification of the elastase activity was measured at 495 nm using a Plate Reader Infinite 200 pro (MTX Lab Systems, Vienna, VA, USA). An untreated culture supernatant was used as a positive control (supplemented with the solvent). The experiment was done in triplicate.

[6] = system: 24 h old P. aeruginosa IBRS P001 biofilms; experiment: Biofilm eradication, MTT assay (cell viability); assay type: cell-based, Pseudomonas aeruginosa
Protocol: The impact of rutin on P. aeruginosa IBRS P001 biofilm formation was determined as previously described by estimating the metabolic activity of microbial cells using an MTT assay. […] The supernatants were then ejected and the biofilms washed with PBS. MTT reagent (200 μL, 0.5 mg/mL) was added and the plate was incubated at 37 °C in the dark for 2 h. The resulting dye was dissolved in DMSO and the absorbance was measured at 570 nm in a microtiter plate reader Multiskan™ FC Microplate Photometer, Thermo Scientific™. The inhibition percentage of biofilm cell viability was calculated:%Inhibition = [(A570control − A570sample)/A570control] × 100
(§2) The bacterial cells were incubated in TSB enriched with 2% glucose in 96-well plates (Sarstedt, Germany) with adhesive bottom at 37 °C for 24 h. After incubation, wells were washed with PBS, and rutin (MBC–4 MBC) in TSB with 2% glucose was added. Incubation continued at 37 °C for another 24 h. The planktonic cells were removed.
(§3) The assays continued as described above for the crystal violet antibiofilm assay for the measurement of biofilm mass, biofilm MTT assay for the interference with cell viability, Congo red binding assay for estimation of exopolysaccharide production, and eDNA assay.

[7] = system: 24 h old P. aeruginosa IBRS P001 biofilms; experiment: Biofilm eradication, eDNA assay; assay type: cell-based, Pseudomonas aeruginosa; details: MBC–4 MBC, Figure 5D
Protocol: The quantity of eDNA was determined as previously described, with some modifications. […] Subsequently, the planktonic cells were removed, and the wells were washed with PBS. TE buffer (Tris-EDTA buffer solution) was added to the wells and content was mixed vigorously by pipetting. The samples were transferred to 1.5 mL tubes and centrifuged at 10,000× g for 10 min. After removal of the supernatant, the pellet was suspended in a TE buffer by vortexing. Absorbance of the supernatant (260 nm) was measured after centrifugation at 10,000× g for 15 min. We calculated the inhibition percentage of eDNA relative to an untreated control. The solvent treated sample was used as the control.
as §2, §3

[8] = system: P. aeruginosa IBRS P001 rhamnolipid production; experiment: Rhamnolipid assay; assay type: cell-based, Pseudomonas aeruginosa; details: 0.25 mg/mL (0.5 MIC), compared to the control
Protocol: Culture supernatants of the previously cultivated P. aeruginosa IBRS P001 strain incubated with rutin 0.250 mg/mL were acidified by using HCl to pH 2.0 [72]. Rhamnolipid production was measured spectrophotometrically at 570 nm by a Plate Reader Infinite 200 pro (MTX Lab Systems, Vienna, VA, USA). A solvent treated culture supernatant was used as a positive control.

[9] = subcultivation, 24 h at 37 °C, read-out: MBC

In the case of C[C@@H]1O[C@@H](OC[C@H]2O[C@@H](Oc3c(-c4ccc(O)c(O)c4)oc4cc(O)cc(O)c4c3=O)[C@H](O)[C@@H](O)[C@@H]2O)[C@H](O)[C@H](O)[C@H]1O [Rutin, rutin], the “cell membrane integrity, in words” value [1] was “obstructed P. aeruginosa IBRS P001 cell membrane integrity”, the inhibition at 250 µg/mL ([2]; Staphylococcus aureus, MRSA, Keratinocyte, read-out: reduction of CFU adhered to human keratinocytes (inhibition)) was 19% and the “reduction of CFU adhered to human keratinocytes” value ([2]; rutin MIC) was 63%. It also gave an MIC ([3]; 37 °C, 24 h, read-out: MIC) of 500 µg/mL (≈ 819 µM), an MBC [3, 9] of 500 µg/mL (≈ 819 µM) and an MIC ([4]; 37 °C, 24 h) of 500 µg/mL (≈ 819 µM). The MIC ([4]; restated in the discussion) was 500 µg/mL (≈ 819 µM), the MBC [4, 9] was 1000 µg/mL (≈ 1640 µM) and the “reduction of elastase production” value [5] was 91%. For the same molecule, the viability at 1000 µg/mL ([6]; Pseudomonas aeruginosa, MBC, 1 mg/mL, read-out: viability of cells within the biofilms) was 92%, the “viability of cells within the biofilms” value ([6]; maximal concentration examined (4 MBC)) was 55% and the “levels of eDNA in the biofilm matrix, in words” value [7] was “significantly reduced”. The “decrease of rhamnolipid production” value [8] was 74.4%.

From publication PMC8952364, “Polyphenols as Inhibitors of Antibiotic Resistant Bacteria—Mechanisms Underlying Rutin Interference with Bacterial Virulence” (Pharmaceuticals, 2022)
